Values after ≈ are worked out from the molar mass of the structure shown. Read-outs that look alike come from different tables or passages of the source.
Legend:
Format in all cases: cell-based
[1] = system: Escherichia coli K12 C600 IAM 1264; assay: Antibacterial activity, agar-dilution MIC, organism No. 6; conditions: Escherichia coli
How it was run: (§1)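 Endpoint: MIC in μg/ml of culture medium. Method: agar dilution. Medium: bouillon agar.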

[2] = system: Klebsiella pneumoniae PCI-602; assay: Antibacterial activity, agar-dilution MIC, organism No. 7; conditions: Klebsiella pneumoniae
How it was run: as §1

[3] = system: Salmonella enteritidis G 14; assay: Antibacterial activity, agar-dilution MIC, organism No. 12; conditions: Salmonella enterica, ENTERITIDIS, read-out: Minimum Inhibitory Concentration
How it was run: as §1

[4] = system: Proteus morganii IFO 3848; assay: Antibacterial activity, agar-dilution MIC, organism No. 18; conditions: Morganella morganii
How it was run: as §1

[5] = system: Pseudomonas aeruginosa IFO 3445; assay: Antibacterial activity, agar-dilution MIC, organism No. 15; conditions: Pseudomonas aeruginosa
How it was run: as §1

[6] = system: Streptococcus faecium IFO 3826; assay: Antibacterial activity, agar-dilution MIC, organism No. 27; conditions: Enterococcus faecium, IFO3826, read-out: Minimum Inhibitory Concentration
How it was run: as §1

[7] = system: Staphylococcus aureus FDA 209PJc-1; assay: Antibacterial activity, agar-dilution MIC, organism No. 1; conditions: Staphylococcus aureus
How it was run: as §1

[8] = system: Enterobacter aerogenes ATCC 13048; assay: Antibacterial activity, agar-dilution MIC, organism No. 23; conditions: Klebsiella aerogenes
How it was run: as §1

[9] = system: Bacillus subtilis ATCC 6633; assay: Antibacterial activity, agar-dilution MIC, organism No. 14; conditions: Bacillus subtilis
How it was run: as §1

Proteus vulgaris OX-19 = assay: Antibacterial activity, agar-dilution MIC, organism No. 20; conditions: Proteus vulgaris
How it was run: as §1

[10] = system: Salmonella typhimurium IID 971; assay: Antibacterial activity, agar-dilution MIC, organism No. 8; conditions: Salmonella enterica, read-out: Minimum Inhibitory Concentration
How it was run: as §1

[11] = system: Staphylococcus aureus Terajima; assay: Antibacterial activity, agar-dilution MIC, organism No. 2; conditions: Staphylococcus aureus, read-out: Minimum Inhibitory Concentration
How it was run: as §1

[12] = system: Streptococcus pyogenes Cook; assay: Antibacterial activity, agar-dilution MIC, organism No. 4; conditions: Streptococcus pyogenes, read-out: Minimum Inhibitory Concentration
How it was run: as §1

[13] = system: Staphylococcus aureus MS 353; assay: Antibacterial activity, agar-dilution MIC, organism No. 3; conditions: Staphylococcus aureus
How it was run: as §1

[14] = system: Pseudomonas aeruginosa PAO 1; assay: Antibacterial activity, agar-dilution MIC, organism No. 17; conditions: Pseudomonas aeruginosa
How it was run: as §1

Salmonella typhi 901 = assay: Antibacterial activity, agar-dilution MIC, organism No. 9; conditions: Salmonella enterica, TYPHI, read-out: Minimum Inhibitory Concentration
How it was run: as §1

[15] = system: Escherichia coli NIHJ-JC-2; assay: Antibacterial activity, agar-dilution MIC, organism No. 5; conditions: Escherichia coli
How it was run: as §1

[16] = system: Streptococcus pyogenes IFO 3340; assay: Antibacterial activity, agar-dilution MIC, organism No. 26; conditions: Streptococcus pyogenes, IFO3340, read-out: Minimum Inhibitory Concentration
How it was run: as §1

[17] = system: Pseudomonas aeruginosa NCTC 10490; assay: Antibacterial activity, agar-dilution MIC, organism No. 16; conditions: Pseudomonas aeruginosa
How it was run: as §1

[18] = system: Salmonella shottmuelleri 8006; assay: Antibacterial activity, agar-dilution MIC, organism No. 11
How it was run: as §1

[19] = system: Micrococcus luteus ATCC 9341; assay: Antibacterial activity, agar-dilution MIC, organism No. 25; conditions: Micrococcus luteus
How it was run: as §1

Proteus vulgaris HX-19 = assay: Antibacterial activity, agar-dilution MIC, organism No. 21; conditions: Proteus vulgaris
How it was run: as §1

Enterobacter cloacae 963 = assay: Antibacterial activity, agar-dilution MIC, organism No. 24
How it was run: as §1

[20] = system: Candida albicans IAM 4905; assay: Antifungal activity, agar-dilution MIC, organism No. 29; conditions: Candida albicans
How it was run: as §1

[21] = system: Serratia marcescens IAM 1184; assay: Antibacterial activity, agar-dilution MIC, organism No. 13; conditions: Serratia marcescens
Description: Agar-dilution method was used for determination of the antibacterial activity and antifungal activity while using bouillon-agar culture medium, and the minimum inhibitory concentration of the specimen was expressed by μg/ml of the culture medium.

[22] = system: Aspergillus niger IFO 6342; assay: Antifungal activity, agar-dilution MIC, organism No. 30; conditions: Aspergillus niger
How it was run: as §1

[23] = system: Salmonella paratyphi-A 1015; assay: Antibacterial activity, agar-dilution MIC, organism No. 10; conditions: Salmonella enterica, PARATYPHI, read-out: Minimum Inhibitory Concentration
How it was run: as §1

[24] = system: Proteus rettgeri IFO 3850; assay: Antibacterial activity, agar-dilution MIC, organism No. 22; conditions: Providencia rettgeri
How it was run: as §1

[25] = system: Proteus mirabilis IFO 3849; assay: Antibacterial activity, agar-dilution MIC, organism No. 19; conditions: Proteus mirabilis
How it was run: as §1

[26] = IAM1264, Organism No. 6, bouillon-agar, read-out: Minimum Inhibitory Concentration
[27] = PCI602, Organism No. 7, bouillon-agar, read-out: Minimum Inhibitory Concentration
[28] = IFO3848, Organism No. 18, bouillon-agar, read-out: Minimum Inhibitory Concentration
[29] = IFO3445, Organism No. 15, bouillon-agar, read-out: Minimum Inhibitory Concentration
[30] = FDA209PJC1, Organism No. 1, bouillon-agar, read-out: Minimum Inhibitory Concentration
[31] = ATCC13048, Organism No. 23, bouillon-agar, read-out: Minimum Inhibitory Concentration
[32] = ATCC6633, Organism No. 14, bouillon-agar, read-out: Minimum Inhibitory Concentration
[33] = OX19, Organism No. 20, bouillon-agar, read-out: Minimum Inhibitory Concentration
[34] = MS353, Organism No. 3, bouillon-agar, read-out: Minimum Inhibitory Concentration
[35] = PAO1, Organism No. 17, bouillon-agar, read-out: Minimum Inhibitory Concentration
[36] = NIHJJC2, Organism No. 5, bouillon-agar, read-out: Minimum Inhibitory Concentration
[37] = NCTC10490, Organism No. 16, bouillon-agar, read-out: Minimum Inhibitory Concentration
[38] = Salmonella, 8006, Organism No. 11, bouillon-agar, read-out: Minimum Inhibitory Concentration
[39] = ATCC9341, Organism No. 25, bouillon-agar, read-out: Minimum Inhibitory Concentration
[40] = HX19, Organism No. 21, bouillon-agar, read-out: Minimum Inhibitory Concentration
[41] = Enterobacter cloacae, 963, Organism No. 24, bouillon-agar, read-out: Minimum Inhibitory Concentration
[42] = IAM4905, Organism No. 29, bouillon-agar, read-out: Minimum Inhibitory Concentration
[43] = IAM1184, Organism No. 13, bouillon-agar, read-out: Minimum Inhibitory Concentration
[44] = IFO6342, Organism No. 30, bouillon-agar, read-out: Minimum Inhibitory Concentration
[45] = IFO3850, Organism No. 22, bouillon-agar, read-out: Minimum Inhibitory Concentration
[46] = IFO3849, Organism No. 19, bouillon-agar, read-out: Minimum Inhibitory Concentration

Compound: [C-]#[N+]C12CC3(/C=C/C(=O)Nc4ccc(OC)cc4)OC3C1O2 (centres unmarked) [compound 53]
- MIC ([1]; IAM1264, read-out: Minimum Inhibitory Concentration): 3.13 µg/mL (≈ 10.5 µM)
- MIC ([2]; PCI602, read-out: Minimum Inhibitory Concentration): < 0.05 µg/mL
- MIC [3]: 0.39 µg/mL (≈ 1.31 µM)
- MIC ([4]; IFO3848, read-out: Minimum Inhibitory Concentration): < 0.05 µg/mL
- MIC ([5]; IFO3445, read-out: Minimum Inhibitory Concentration): > 200 µg/mL
- MIC [6]: 6.25 µg/mL (≈ 21 µM)
- MIC ([7]; FDA209PJC1, read-out: Minimum Inhibitory Concentration): < 0.05 µg/mL
- MIC ([8]; ATCC13048, read-out: Minimum Inhibitory Concentration): > 200 µg/mL
- MIC ([9]; ATCC6633, read-out: Minimum Inhibitory Concentration): 6.25 µg/mL (≈ 21 µM)
- MIC (Proteus vulgaris OX-19; OX19, read-out: Minimum Inhibitory Concentration): < 0.05 µg/mL
- MIC [10]: 1.56 µg/mL (≈ 5.23 µM)
- MIC [11]: < 0.05 µg/mL
- MIC [12]: 6.25 µg/mL (≈ 21 µM)
- MIC ([13]; MS353, read-out: Minimum Inhibitory Concentration): < 0.05 µg/mL
- MIC ([14]; PAO1, read-out: Minimum Inhibitory Concentration): > 200 µg/mL
- MIC (Salmonella typhi 901): 0.39 µg/mL (≈ 1.31 µM)
- MIC ([15]; NIHJJC2, read-out: Minimum Inhibitory Concentration): 12.5 µg/mL (≈ 41.9 µM)
- MIC [16]: 0.39 µg/mL (≈ 1.31 µM)
- MIC ([17]; NCTC10490, read-out: Minimum Inhibitory Concentration): > 200 µg/mL
- MIC ([18]; Salmonella, 8006, read-out: Minimum Inhibitory Concentration): < 0.05 µg/mL
- MIC ([19]; ATCC9341, read-out: Minimum Inhibitory Concentration): < 0.05 µg/mL
- MIC (Proteus vulgaris HX-19; HX19, read-out: Minimum Inhibitory Concentration): < 0.05 µg/mL
- MIC (Enterobacter cloacae 963; Enterobacter cloacae, 963, read-out: Minimum Inhibitory Concentration): 50 µg/mL (≈ 168 µM)
- MIC ([20]; IAM4905, read-out: Minimum Inhibitory Concentration): 0.79 µg/mL (≈ 2.65 µM)
- MIC ([21]; IAM1184, read-out: Minimum Inhibitory Concentration): 25 µg/mL (≈ 83.8 µM)
- MIC ([22]; IFO6342, read-out: Minimum Inhibitory Concentration): 1.56 µg/mL (≈ 5.23 µM)
- MIC [23]: < 0.05 µg/mL
- MIC ([24]; IFO3850, read-out: Minimum Inhibitory Concentration): 0.78 µg/mL (≈ 2.61 µM)
- MIC ([25]; IFO3849, read-out: Minimum Inhibitory Concentration): 3.13 µg/mL (≈ 10.5 µM)

Compound: [C-]#[N+]C12CC3(/C=C/C(=O)Nc4nc5ccccc5s4)OC3C1O2 (centres unmarked) [compound 70]
- MIC [1, 26]: > 200 µg/mL
- MIC [2, 27]: 1.56 µg/mL (≈ 4.79 µM)
- MIC ([3]; Organism No. 12, bouillon-agar): > 200 µg/mL
- MIC [4, 28]: 6.25 µg/mL (≈ 19.2 µM)
- MIC [5, 29]: > 200 µg/mL
- MIC [7, 30]: 0.39 µg/mL (≈ 1.2 µM)
- MIC [8, 31]: > 200 µg/mL
- MIC [9, 32]: 3.13 µg/mL (≈ 9.62 µM)
- MIC (Proteus vulgaris OX-19; [33]): 1.56 µg/mL (≈ 4.79 µM)
- MIC ([10]; Organism No. 8, bouillon-agar): > 200 µg/mL
- MIC ([11]; Organism No. 2, bouillon-agar): 0.78 µg/mL (≈ 2.4 µM)
- MIC ([12]; Organism No. 4, bouillon-agar): 1.56 µg/mL (≈ 4.79 µM)
- MIC [13, 34]: 0.39 µg/mL (≈ 1.2 µM)
- MIC [14, 35]: > 200 µg/mL
- MIC (Salmonella typhi 901): > 200 µg/mL
- MIC [15, 36]: > 200 µg/mL
- MIC [17, 37]: > 200 µg/mL
- MIC [18, 38]: > 200 µg/mL
- MIC [19, 39]: > 200 µg/mL
- MIC (Proteus vulgaris HX-19; [40]): 1.56 µg/mL (≈ 4.79 µM)
- MIC (Enterobacter cloacae 963; [41]): > 200 µg/mL
- MIC [20, 42]: 1.56 µg/mL (≈ 4.79 µM)
- MIC [21, 43]: > 200 µg/mL
- MIC [22, 44]: 6.25 µg/mL (≈ 19.2 µM)
- MIC [23]: 3.13 µg/mL (≈ 9.62 µM)
- MIC [24, 45]: > 200 µg/mL
- MIC [25, 46]: > 200 µg/mL

Compound: [C-]#[N+]C12CC3(/C=C/C(=O)Nc4nnc(C)s4)OC3C1O2 (centres unmarked) [compound 71]
- MIC [1, 26]: > 200 µg/mL
- MIC [2, 27]: > 200 µg/mL
- MIC ([3]; Organism No. 12, bouillon-agar): 200 µg/mL (≈ 689 µM)
- MIC [4, 28]: 12.5 µg/mL (≈ 43.1 µM)
- MIC [5, 29]: > 200 µg/mL
- MIC [7, 30]: 1.56 µg/mL (≈ 5.37 µM)
- MIC [8, 31]: > 200 µg/mL
- MIC [9, 32]: > 200 µg/mL
- MIC (Proteus vulgaris OX-19; [33]): 6.25 µg/mL (≈ 21.5 µM)
- MIC ([10]; Organism No. 8, bouillon-agar): > 200 µg/mL
- MIC ([11]; Organism No. 2, bouillon-agar): 12.5 µg/mL (≈ 43.1 µM)
- MIC ([12]; Organism No. 4, bouillon-agar): 12.5 µg/mL (≈ 43.1 µM)
- MIC [13, 34]: 6.25 µg/mL (≈ 21.5 µM)
- MIC [14, 35]: > 200 µg/mL
- MIC (Salmonella typhi 901): 25 µg/mL (≈ 86.1 µM)
- MIC [15, 36]: > 200 µg/mL
- MIC [17, 37]: > 200 µg/mL
- MIC [18, 38]: 100 µg/mL (≈ 344 µM)
- MIC [19, 39]: > 200 µg/mL
- MIC (Proteus vulgaris HX-19; [40]): 6.25 µg/mL (≈ 21.5 µM)
- MIC (Enterobacter cloacae 963; [41]): > 200 µg/mL
- MIC [20, 42]: 12.5 µg/mL (≈ 43.1 µM)
- MIC [21, 43]: > 200 µg/mL
- MIC [22, 44]: 200 µg/mL (≈ 689 µM)
- MIC [23]: 12.5 µg/mL (≈ 43.1 µM)
- MIC [24, 45]: > 200 µg/mL
- MIC [25, 46]: > 200 µg/mL
